Measured values from patent US11324798B2, “Materials and methods for treatment of inflammation” (CYTOGEL PHARMA, LLC, priority 2010, dated 2022).
“Also recorded” adds a separate entry of the source.

Legend:
[1] = Appearance of CYT-1010 preparations in 20% HPCD; type: physicochemical
Experimental: For the in vivo rat and mouse experiments, 5.5 ml of the 1 mg/ml stock solution of CYT-1010 was prepared freshly every experimental day with 20% HPCD dissolved in sterile distilled water. […] The vehicle was 20% HPCD dissolved in sterile distilled water. Further dilutions of the compound for the smaller administered doses were made with this vehicle, the 500 μg/ml and 100 μg/ml concentrations looked opalescent and the lower concentrations were clear. In rats 0.1 ml/100 g, in mice 0.1 ml/10 g volumes were administered i.v. 10 min before the induction of the inflammation.
(§1) Stock solution of the 100 μg/ml concentration of CYT-1010 (5.5 ml) was prepared fresh every experimental day with 20% hydroxypropyl-βcyclodextrin (HPCD) dissolved in sterile distilled water, shaken properly and sonicated. The vehicle was 20% HPCD dissolved in sterile distilled water. Further dilutions of the compound for the smaller administered doses were made with this vehicle. The applied concentrations were filtered through a 0.2 μm sterile teflon filter. […] The lower concentrations looked clear immediately. Non-filtered solutions were administered in the same concentrations in the parallel groups for comparison. Three doses of both the filtered and non-filtered CYT-1010 solutions (1, 10 and 100 μg/kg; 0.1 ml/10 g from the 0.1, 1 and 10 μg/ml solutions) were administered i.v. 5 min before the induction of the inflammation. Animals of the control group were treated with the same volume of the HPCD after or without the same filtration procedure.

[2] = test system: mustard oil-induced acute neurogenic inflammation in the mouse ear; assay: Filtered and non-filtered CYT-1010 on 5% mustard oil-induced acute neurogenic ear swelling in mice (Example 4); type: in vivo
Experimental: as §1
Mice were anaesthesized with urethane (1.2 g/kg i.p.) to achieve a long-lasting deep anaesthesia and minimize respiratory depression. Ten μl of 5% mustard oil dissolved in paraffin oil was smeared on both sides of both ears. Mustard oil in this concentration selectively activates Transient Receptor Potential A1 (TRPA1) on capsaicin-sensitive peptidergic sensory nerves and induces the release of sensory neuropeptides (Banvolgyi et al., 2004). The released calcitonin gene-related peptide (CGRP) and tachykinins such as substance P (SP) in the innervated area evoke vasodilatation and plasma protein extravasation collectively called acute neurogenic inflammation (Helyes et al., 1997, 2001, 2006; Borzsei et a., 2008).
CYT-1010 (1, 10 and 100 μg/kg; 0.1 ml/10 g from the 0.1, 1, 10 μg/ml solutions) was administered i.v. 5 min before the induction of the inflammation by mustard oil smearing. Mice in the control group were treated with the same volume of the vehicle, 20% HPCD dissolved in sterile distilled water
There were 8 mice in each experimental group, and 9 in the 1 μg/kg filtered CYT-1010 dose group […].
65 male CD1 mice (25-35 g) were divided into 8 experimental groups: Group 1: non-filtered vehicle-treated controls (n=8); Group 2: non-filtered 1 μg/kg CYT-1010 (n=8); Group 3: non-filtered 10 μg/kg CYT-1010 (n=8); Group 4: non-filtered 100 μg/kg CYT-1010 (n=8); Group 5: filtered vehicle-treated controls (n=8); Group 6: filtered 1 μg/kg CYT-1010 (n=9); Group 7: filtered 10 μg/kg CYT-1010 (n=8); and Group 8: filtered 100 μg/kg CYT-1010 (n=8).
This study was undertaken in blocks with 16-17 mice per occasion. The whole set of data was obtained during 4 days (12, 13, 16, 22 Apr. 2010). There were 2 or 3 solvent-treated rats every day and the remaining 12 animals were randomised to receive each treatment.
The diameter of the ear was measured with an engineers' micrometer before the treatment and 4 times during the 3 h-examination period (20 min, 1 h, 2 h and 3 h). Edema was expressed in % compared to the initial control values (Banvolgyi et al., 2004; Borzsei et al., 2008). The compound was administered i.v. 5 min before mustard oil smearing in 3 doses (1, 10, 100 μg/kg) in separate groups after sterile filtration or without filtration. Animals of the control group were treated with the same volume of the vehicle
Results are expressed as the mean±s.e.m. Statistical significance was performed with one-way ANOVA followed by Dunnett's post-hoc test (modified t-test) when the data of the CYT-1010-treated groups were compared to the respective vehicle-treated controls at certain time points. The areas under the time-dependent percentage ear swelling curves (AUC) were also calculated and analyzed with the same statistics to compare the whole edema responses of the CYT-1010-treated mice during the 3 h-experimental period to the respective control group. *p<0.05 was considered to be significant. […]

With `NC(Cc1ccc(O)cc1)C(=O)NC1CCCCNC(=O)C(Cc2ccccc2)NC(=O)C(Cc2c[nH]c3ccccc23)NC1=O` [CYT-1010, H-Tyr-c-[D-Lys-Trp-Phe]] the Appearance of preparation ([1]; 100 μg/ml in 20% HPCD, directly after preparation (Example 4)) was “opalescent”, the Appearance of preparation ([1]; 100 μg/ml in 20% HPCD, on standing at 4° C. (Example 4)) was “cleared up 1 hour later” and the Appearance of preparation ([1]; 500 μg/ml and 100 μg/ml in 20% HPCD) was “opalescent”. The Appearance of preparation ([1]; 1 mg/ml stock in 20% HPCD in sterile distilled water) was “milky white micro-suspension”, the Appearance of preparation ([1]; lower concentrations (below 100 μg/ml) in 20% HPCD) was “clear” and the “Effect of filtration on the inhibitory action of CYT-1010” value ([2]; 0.2 μm sterile filter, filtered vs non-filtered) was “moderately decreases”. For the same molecule, the “AUC of time course of percentage ear swelling” value ([2]; filtered (0.2 μm), 1 μg/kg i.v., control 50.04±6.96, NS) was 51.47±6.93 units, the “AUC of time course of percentage ear swelling” value ([2]; filtered (0.2 μm), 10 μg/kg i.v., control 50.04±6.96, NS) was 33.68±3.79 units and the “AUC of time course of percentage ear swelling” value ([2]; filtered (0.2 μm), 100 μg/kg i.v., control 50.04±6.96, NS) was 33.97±5.62 units. The “Effect on mustard oil-induced ear swelling” value ([2]; filtered, 1 μg/kg i.v.) was “did not influence ear swelling; also recorded: did not have any effect”, the “Effect on mustard oil-induced ear swelling” value ([2]; filtered, 10 μg/kg and 100 μg/kg i.v., 20 min) was “inhibited significantly” and the “Effect on mustard oil-induced ear swelling” value ([2]; filtered, two higher doses (10 and 100 μg/kg i.v.)) was “moderate inhibition”. For the same molecule, the “Effect on mustard oil-induced ear swelling” value ([2]; non-filtered, 1 μg/kg i.v.) was “did not significantly diminish ear swelling”, the “AUC of time course of percentage ear swelling” value ([2]; non-filtered, 1 μg/kg i.v., control 44.02±6.97, NS) was 40.33±5.32 units and the “Extent of the inhibition of ear swelling” value ([2]; non-filtered, 10 μg/kg and 100 μg/kg i.v., both cases) was “about 50%”. For the same molecule, the “Effect on mustard oil-induced ear swelling” value ([2]; non-filtered, 10 μg/kg and 100 μg/kg i.v., from 20 min until the 2 hour time point) was “significantly inhibited; also recorded: significantly reduced”, the “AUC of time course of percentage ear swelling” value ([2]; non-filtered, 10 μg/kg i.v., control 44.02±6.97, P<0.05) was 24.21±2.75 units and the “AUC of time course of percentage ear swelling” value ([2]; non-filtered, 100 μg/kg i.v., control 44.02±6.97, P<0.01) was 21.71±1.72 units.
